Source: ChEMBL document CHEMBL1201862, “PubChem BioAssay data set” (2004)
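Protocol summary: plate cells (96-well), add compound at 5 concentrations, incubate 48 h, interpolate endpoints linearly. The concentration for 50% growth inhibition is given as GI50.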 Active and inactive are the calls of the source. Rule as the data show it: active = GI50 up to about 1.1 µM and inactive = higher.

How the values were obtained:
Experiment in all cases: DTP human tumour cell line panel, 48 h
HCC 2998 = tested on: HCC 2998
HCT-116 = tested on: HCT-116
IGROV-1 = tested on: IGROV-1
KM12 = tested on: KM12
Malme-3M = tested on: Malme-3M
NCI-H522 = tested on: NCI-H522
OVCAR-3 = tested on: OVCAR-3
RPMI-8226 = tested on: RPMI-8226
RXF 393 = tested on: RXF 393
SF-295 = tested on: SF-295
SK-MEL-28 = tested on: SK-MEL-28
SK-OV-3 = tested on: SK-OV-3
SNB-19 = tested on: SNB-19
SNB-75 = tested on: SNB-75
SW-620 = tested on: SW-620
U-251 = tested on: U-251
UACC-257 = tested on: UACC-257
UACC-62 = tested on: UACC-62
UO-31 = tested on: UO-31
M14 = tested on: M14

Row | Compound | GI50 (HCC 2998) | GI50 (HCT-116) | GI50 (IGROV-1) | GI50 (KM12) | GI50 (Malme-3M) | GI50 (NCI-H522) | GI50 (OVCAR-3) | GI50 (RPMI-8226) | GI50 (RXF 393) | GI50 (SF-295) | GI50 (SK-MEL-28) | GI50 (SK-OV-3) | GI50 (SNB-19) | GI50 (SNB-75) | GI50 (SW-620) | GI50 (U-251) | GI50 (UACC-257) | GI50 (UACC-62) | GI50 (UO-31) | GI50 (M14)
1 | O=C1ON(Cc2ccccc2)C(c2ccccc2)N1c1ccccc1 (stereo unspecified) | > 100 µM (inactive) | > 100 µM (inactive) | > 100 µM (inactive) | > 100 µM (inactive) | > 100 µM (inactive) | > 100 µM (inactive) | > 100 µM (inactive) | > 100 µM (inactive) | > 100 µM (inactive) | > 64 µM (inactive) | > 100 µM (inactive) | > 100 µM (inactive) | > 100 µM (inactive) | 62.7 µM (inactive) | > 100 µM (inactive) | > 100 µM (inactive) | > 100 µM (inactive) | 98.9 µM (inactive) | > 100 µM (inactive) | –
2 | O=NN1C(c2ccccc2)CCCC1c1ccccc1 (stereo unspecified) | 80.4 µM (inactive) | 47.9 µM (inactive) | > 89.7 µM (inactive) | > 89.9 µM (inactive) | > 65.5 µM (inactive) | 23.4 µM (inactive) | > 41.8 µM (inactive) | 21.7 µM (inactive) | 44.5 µM (inactive) | 22.1 µM (inactive) | > 100 µM (inactive) | 31.9 µM (inactive) | > 100 µM (inactive) | 28.3 µM (inactive) | > 92.7 µM (inactive) | 75.5 µM (inactive) | 72.1 µM (inactive) | > 94.8 µM (inactive) | 42.4 µM (inactive) | –
3 | C=CCN1/C(=C(\C#N)c2nc3ccccc3[nH]2)Sc2c1nc[nH]c2=O | > 100 µM (inactive) | > 100 µM (inactive) | > 100 µM (inactive) | > 100 µM (inactive) | > 100 µM (inactive) | > 100 µM (inactive) | > 100 µM (inactive) | > 100 µM (inactive) | 6.68 µM (inactive) | > 100 µM (inactive) | > 100 µM (inactive) | > 100 µM (inactive) | > 100 µM (inactive) | 31.4 µM (inactive) | > 100 µM (inactive) | 80.5 µM (inactive) | > 100 µM (inactive) | > 100 µM (inactive) | > 100 µM (inactive) | > 100 µM (inactive)
4 | CC(OC(C)(C)C)[C@H](NC(=O)OCC(Cl)(Cl)Cl)C(=O)O (stereo partly specified) | > 100 µM (inactive) | > 100 µM (inactive) | > 100 µM (inactive) | > 100 µM (inactive) | > 100 µM (inactive) | > 100 µM (inactive) | > 100 µM (inactive) | > 100 µM (inactive) | 87.9 µM (inactive) | > 100 µM (inactive) | > 100 µM (inactive) | > 100 µM (inactive) | > 100 µM (inactive) | > 100 µM (inactive) | > 100 µM (inactive) | > 100 µM (inactive) | > 100 µM (inactive) | > 100 µM (inactive) | > 100 µM (inactive) | > 100 µM (inactive)
5 | CC(=O)OCC1OC(OCCCCCCO)C(OC(C)=O)C(OC(C)=O)C1OC(C)=O (stereo unspecified) | > 100 µM (inactive) | > 100 µM (inactive) | > 100 µM (inactive) | > 100 µM (inactive) | – | > 100 µM (inactive) | > 100 µM (inactive) | > 100 µM (inactive) | > 100 µM (inactive) | > 100 µM (inactive) | > 100 µM (inactive) | > 100 µM (inactive) | > 100 µM (inactive) | > 100 µM (inactive) | > 100 µM (inactive) | > 100 µM (inactive) | > 100 µM (inactive) | > 100 µM (inactive) | > 100 µM (inactive) | > 100 µM (inactive)
6 | CC1(c2ccccc2)N=c2[nH]cnc2=C(C(N)=O)N1 (stereo unspecified) | > 100 µM (inactive) | > 100 µM (inactive) | > 100 µM (inactive) | > 100 µM (inactive) | > 100 µM (inactive) | > 100 µM (inactive) | > 100 µM (inactive) | > 100 µM (inactive) | > 100 µM (inactive) | > 100 µM (inactive) | > 100 µM (inactive) | > 100 µM (inactive) | > 100 µM (inactive) | > 100 µM (inactive) | > 100 µM (inactive) | > 100 µM (inactive) | > 100 µM (inactive) | > 100 µM (inactive) | – | > 100 µM (inactive)
7 | C=C(C)CCN[Si](c1ccccc1)(c1ccccc1)C(C)(C)C | 21.1 µM (inactive) | 14.6 µM (inactive) | 27.1 µM (inactive) | 18.5 µM (inactive) | 20.5 µM (inactive) | 18.1 µM (inactive) | 17.6 µM (inactive) | 24 µM (inactive) | 15.3 µM (inactive) | 19.3 µM (inactive) | 20.3 µM (inactive) | 32.3 µM (inactive) | 18.4 µM (inactive) | 28.5 µM (inactive) | 40 µM (inactive) | 15.4 µM (inactive) | 15.7 µM (inactive) | 17 µM (inactive) | 13.7 µM (inactive) | 18.9 µM (inactive)
8 | O=C(/C=C/c1cccc2ccccc12)c1ccccc1Cl | 15.2 µM (inactive) | 8.95 µM (inactive) | 16.6 µM (inactive) | 8.63 µM (inactive) | 16.4 µM (inactive) | 14.4 µM (inactive) | 12.9 µM (inactive) | 5.43 µM (inactive) | 16.7 µM (inactive) | – | 19.1 µM (inactive) | 21.4 µM (inactive) | 14.1 µM (inactive) | 16.7 µM (inactive) | 5.58 µM (inactive) | 11.6 µM (inactive) | 17.4 µM (inactive) | 14.1 µM (inactive) | 14.8 µM (inactive) | 15.5 µM (inactive)
9 | Clc1cc2c(c(CSC3=NCN(CC4CC4)CN3)c1)OCOC2 | 15.2 µM (inactive) | 18.5 µM (inactive) | 35.9 µM (inactive) | 30.8 µM (inactive) | 18.2 µM (inactive) | 14.5 µM (inactive) | 23.4 µM (inactive) | 12.1 µM (inactive) | 17.3 µM (inactive) | 24.6 µM (inactive) | 19.8 µM (inactive) | 24.6 µM (inactive) | 26.1 µM (inactive) | 18.4 µM (inactive) | 20.5 µM (inactive) | 19.6 µM (inactive) | 16.2 µM (inactive) | 17.9 µM (inactive) | 12.7 µM (inactive) | 13.8 µM (inactive)
10 | COC(=O)c1ccc(/N=N/N(C)COc2ccc([N+](=O)[O-])cc2)cc1 | > 74.5 µM (inactive) | > 100 µM (inactive) | > 100 µM (inactive) | 81.8 µM (inactive) | > 100 µM (inactive) | > 100 µM (inactive) | > 100 µM (inactive) | 38.7 µM (inactive) | > 85.3 µM (inactive) | > 77.4 µM (inactive) | > 100 µM (inactive) | > 100 µM (inactive) | > 100 µM (inactive) | 54.6 µM (inactive) | 64.7 µM (inactive) | > 100 µM (inactive) | > 100 µM (inactive) | 33.3 µM (inactive) | > 100 µM (inactive) | –
11 | O=C1C=CC2=[N+]([O-])C(c3ccccc3)(c3ccccc3)/C(=N\c3ccccc3)C2=C1 | 6.3 µM (inactive) | 1.97 µM (inactive) | 1.82 µM (inactive) | – | 2.29 µM (inactive) | 1.61 µM (inactive) | 1.82 µM (inactive) | 2.96 µM (inactive) | 1.6 µM (inactive) | 14.5 µM (inactive) | – | 17.8 µM (inactive) | 17.2 µM (inactive) | 3.22 µM (inactive) | 1.91 µM (inactive) | 2.5 µM (inactive) | 2.38 µM (inactive) | 2.1 µM (inactive) | 2.21 µM (inactive) | 1.97 µM (inactive)
12 | CN1NC(c2ccccc2)=C(C#N)C(=O)CC1c1ccc(Br)cc1 (stereo unspecified) | 34.5 µM (inactive) | 36.8 µM (inactive) | – | 25.2 µM (inactive) | 23.3 µM (inactive) | 22.3 µM (inactive) | – | 37.8 µM (inactive) | 36.6 µM (inactive) | 11.9 µM (inactive) | 48 µM (inactive) | 31.8 µM (inactive) | 28.8 µM (inactive) | 16.6 µM (inactive) | 25.6 µM (inactive) | > 10 µM (inactive) | 69.5 µM (inactive) | – | – | 20.9 µM (inactive)
13 | O=S(=O)(O)c1ccc(/N=N\c2ccc(/N=N/c3ccc(/C=C/c4ccc(/N=[N+](\[O-])c5ccc(/C=C/c6ccc(/N=N/c7ccc(/N=N/c8ccc(S(=O)(=O)O)cc8)c8ccccc78)cc6S(=O)(=O)O)c(S(=O)(=O)O)c5)cc4S(=O)(=O)O)c(S(=O)(=O)O)c3)c3ccccc23)cc1 | > 100 µM (inactive) | > 100 µM (inactive) | 32.3 µM (inactive) | > 100 µM (inactive) | > 100 µM (inactive) | 54.5 µM (inactive) | 99.1 µM (inactive) | > 100 µM (inactive) | > 100 µM (inactive) | > 74.6 µM (inactive) | > 100 µM (inactive) | > 100 µM (inactive) | > 10 µM (inactive) | 50.7 µM (inactive) | > 100 µM (inactive) | > 91.4 µM (inactive) | > 100 µM (inactive) | > 100 µM (inactive) | 57.4 µM (inactive) | –
14 | CC(=O)O[C@@]12CO[C@@H]1CC(O)[C@@]1(C)C(=O)[C@H](O)C3=C(C)C(O)C[C@@](O)(C(OC(=O)c4ccccc4)C12)C3(C)C (stereo partly specified) | 1.72 µM (inactive) | 0.371 µM (active) | 1.88 µM (inactive) | 0.558 µM (active) | 2.54 µM (inactive) | 0.637 µM (active) | 0.454 µM (active) | 0.519 µM (active) | 25 µM (inactive) | 5.32 µM (inactive) | – | 0.767 µM (active) | 3.3 µM (inactive) | 0.507 µM (active) | 0.448 µM (active) | 0.828 µM (active) | 0.684 µM (active) | 0.508 µM (active) | 46.1 µM (inactive) | 2.59 µM (inactive)
